Reference: ChEMBL document CHEMBL5715945 (Cancer Biol Ther, 2010)
The source made the active and inactive calls. The calls are words filed in the database; no cut-off is given here.

Assays:
[1] = target: Focal adhesion kinase 1 (Mus musculus) (UniProt P34152); test: Inhibition of FAK phosphorylation at Tyr397 residue in mouse 4T1 cells harbouring mCherry red fluorescent protein at 0.1 to 1 uM incubated for 1 hr by immunoblotting analysis; assay type: cell-based; settings: dose 0.1-1 µM
4T1 [2] = test: Inhibition of cell adhesion to fibronectin in mouse 4T1 cells at 0.4 uM incubated for 4 hrs by […]; assay type: functional, cell-based
4T1 [3] = test: Inhibition of Src phosphorylation at Tyr416 residue in mouse 4T1 cells harbouring mCherry red fluorescent protein incubated for 1 hr by immunoblotting analysis; assay type: cell-based; settings: dose 0.1-1 µM

Focal adhesion kinase 1 (Mus musculus), sequence (P34152 whole entry): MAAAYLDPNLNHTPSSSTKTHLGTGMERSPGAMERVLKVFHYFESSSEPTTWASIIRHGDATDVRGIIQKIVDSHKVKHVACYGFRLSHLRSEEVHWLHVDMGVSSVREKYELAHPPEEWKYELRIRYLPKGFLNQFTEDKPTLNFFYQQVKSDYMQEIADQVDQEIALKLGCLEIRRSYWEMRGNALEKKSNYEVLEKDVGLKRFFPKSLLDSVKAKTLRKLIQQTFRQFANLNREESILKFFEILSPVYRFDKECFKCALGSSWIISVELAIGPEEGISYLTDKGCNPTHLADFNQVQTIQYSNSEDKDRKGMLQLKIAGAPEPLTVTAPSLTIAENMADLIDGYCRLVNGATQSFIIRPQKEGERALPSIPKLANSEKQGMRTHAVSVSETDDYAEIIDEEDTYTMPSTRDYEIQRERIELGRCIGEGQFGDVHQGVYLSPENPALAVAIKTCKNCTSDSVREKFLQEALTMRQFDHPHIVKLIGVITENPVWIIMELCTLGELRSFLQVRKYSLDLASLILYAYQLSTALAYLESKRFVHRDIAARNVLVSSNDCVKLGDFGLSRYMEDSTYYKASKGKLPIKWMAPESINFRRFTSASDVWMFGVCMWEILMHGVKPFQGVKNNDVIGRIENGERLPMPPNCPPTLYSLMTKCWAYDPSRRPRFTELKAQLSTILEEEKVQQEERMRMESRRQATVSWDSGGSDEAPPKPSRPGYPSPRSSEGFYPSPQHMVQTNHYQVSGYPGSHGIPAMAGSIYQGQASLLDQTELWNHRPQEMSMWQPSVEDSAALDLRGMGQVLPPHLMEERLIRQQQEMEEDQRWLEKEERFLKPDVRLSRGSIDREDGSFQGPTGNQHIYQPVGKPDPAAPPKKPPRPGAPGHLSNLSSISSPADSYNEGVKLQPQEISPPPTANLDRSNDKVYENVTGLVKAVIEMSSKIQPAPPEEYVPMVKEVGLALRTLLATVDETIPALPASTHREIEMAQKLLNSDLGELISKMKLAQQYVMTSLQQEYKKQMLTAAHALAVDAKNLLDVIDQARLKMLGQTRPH

inhibition [1]: inactive
SMILES: Cc1nc(Nc2ncc(C(=O)Nc3c(C)cccc3Cl)s2)cc(N2CCN(CCO)CC2)n1
inhibition (4T1 [2]): inactive
inhibition (4T1 [3]): Dose-Dependent Effect
